# Results from patent publication US8168650B2, “Therapeutic uses of bicyclic ligands of sigma 2 receptor” (priority 2006, dated 2012).
# “Also recorded” adds a separate entry of the source. Structures can show the parent of a compound that is named as a salt. Where two headings read alike, the source gives them in different places.
# How the values were obtained:
# σ2 receptor = biological target: T1, σ2 receptor (Rattus norvegicus, UniProt Q5U3Y7); test: σ2 receptor binding assay, [3H]DTG or [3H]RHM-1; settings: for σ1/σ2 Ratio: Ki for σ1/Ki for σ2
# T1 construct: from tissue; host or cells: rat liver membrane homogenates
# T1 sequence (Q5U3Y7 1-176): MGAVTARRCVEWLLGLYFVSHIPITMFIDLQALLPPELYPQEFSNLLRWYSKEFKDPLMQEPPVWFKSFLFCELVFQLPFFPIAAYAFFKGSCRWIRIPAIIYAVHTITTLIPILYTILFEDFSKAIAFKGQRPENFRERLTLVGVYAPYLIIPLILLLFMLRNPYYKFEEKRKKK
# Method: (§1) In vitro binding studies were conducted in order to determine the affinity of the target compounds at σ1 and σ2 receptors.
# (§2) In this example, test compounds were dissolved in N,N-dimethylformamide (DMF), dimethylsulfoxide (DMSO) or ethanol and then diluted in 50 mM Tris-HCl, pH 7.4 buffer containing 150 mM NaCl and 100 mM EDTA. Membrane homogenates were made from guinea pig brain for σ1 binding assays and rat liver for σ2 binding assays. Membrane homogenates were diluted with 50 mM Tris-HCl buffer, pH 8.0, and incubated at 25° C. in a total volume of 150 μL in 96-well plates with the radioligand and test compounds with concentrations ranging from 0.1 nM to 10 μM. After incubation was completed, the reactions were terminated by the addition of 150 μL of ice-cold wash buffer (10 mM Tris-HCl, 150 mM NaCl, pH 7.4) using a 96-channel transfer pipette (Fisher Scientific, Pittsburgh, Pa.), and the samples harvested and filtered rapidly through 96-well fiberglass filter plate (Millipore, Billerica, Mass.) that had been presoaked with 100 μL of 50 mM Tris-HCl buffer, pH 8.0, for 1 h. Each filter was washed three times with 200 μL of ice cold wash buffer.
# (§3) Ki values were calculated using the method of Cheng and Prusoff20 and represent mean values±SEM.
# σ1 receptor [1] = biological target: T2, σ1 receptor (Cavia porcellus, UniProt Q60492); test: biochemical
# Method: as §1, §2, §3
# σ1 receptor [2] = biological target: T2, σ1 receptor
# Method: as §1, §2, §3
# [3] = system: pancreatic cancer cell lines (Panc-02, CFPAC-1, AsPC-1, Panc-1); test: Apoptosis in pancreas cancer cell lines (TUNEL / cleaved caspase-3, flow cytometry); assay type: cell-based, mouse, human; settings: 24 hours incubation
# Method: Tumor cells were seeded at a density of approximately 0.2×10^6 cells per well in 12-well plates in 1.0 ml culture medium. Cells were split and pre-incubated at 37° C. in humidified 5% CO2 for more than 24 hours (Panc-02) and 48 hours (CFPAC-1, AsPC-1, Panc-1) to insure uniform growth conditions. Compounds were dissolved in DMSO and added to the culture medium at the concentrations indicated. The final concentration of DMSO in the cell culture medium was less than 1%. The cells were then incubated for 24 hours at 37° C. in humidified 5% CO2. The extent of apoptosis was subsequently measured as previously reported (Guelen, L., et al., Oncogene 2004, 23: 1153-1165). Briefly, staining was performed on trypsin-EDTA treated cultures that had been fixed with 1% paraformaldehyde and 90% methanol. Cell pellets were resuspended in TUNEL reagent (APO-BRDU kit, San Diego, Calif.) or cleaved caspase-3 antibody (Cell Signaling Technology, Inc. Boston, Mass.) and incubated overnight at room temperature (TUNEL) or 4° C. (cleaved caspase-3). After washing, cells were resuspended in fluorescein antibody or 7-AAD buffer and incubated for 1 hour at room temperature. Cell-associated fluorescence was determined using a flow cytometry (FACScan, BD Biosciences) and analyzed with CellQuest software (BD Biosciences).
# At the highest dose tested (10 μM), all sigma-2 receptor ligands induced an additional 10-20% of the cells to undergo apoptosis (FIG. 15A). […] The pan-caspase inhibitor (Z-VAD-fmk) and caspase-3/7 inhibitor (DEVD-CHO) prevented sigma-2 receptor ligand-induced apoptosis in panc-02 cells, while the caspase-1 inhibitor (YVAD-CHO) had no effect (FIG. 15B).
# EMT-6 cells = settings: EMT-6, 1 h pre-incubation with inhibitor (100 μM), MTS assay
# Method: To determine the effect of blocking the caspase-dependent apoptotic pathway on sigma ligand-induced cell killing, the caspase inhibitors, Z-VAD-FMK or Z-DEVD-FMK (Calbiochem, San Diego, Calif.) were added to the culture medium 1 hour before the sigma ligands, and the MTS assay performed as described above.
# [4] = Ki σ2, inhibiting binding of [3H]DTG or [3H]RHM-1 to rat liver homogenates, mean ± SEM
# [5] = inhibiting binding of [3H]DTG or [3H]RHM-1 to rat liver homogenates, mean ± SEM, read-out: Ki σ2
# T2 sequence (Q60492 whole entry): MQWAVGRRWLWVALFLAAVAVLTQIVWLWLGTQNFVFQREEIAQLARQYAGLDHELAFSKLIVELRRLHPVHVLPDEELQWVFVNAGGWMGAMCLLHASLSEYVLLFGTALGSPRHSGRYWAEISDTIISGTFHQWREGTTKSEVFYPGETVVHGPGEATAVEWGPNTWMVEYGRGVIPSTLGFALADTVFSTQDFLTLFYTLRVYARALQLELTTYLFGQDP
Compound,σ1/σ2 Ratio (σ2 receptor),Ki (σ2 receptor; [4]) [nM],Ki (σ1 receptor [1]) [nM],further results
"COc1ccc(C)cc1NC(=O)OC1CC2CCCC(C1)N2CCCCCCNCc1ccc(I)cc1 (stereo not drawn) [Compound 3f, N-(9-(6-(4′-Iodobenzylamino)hexyl)-9-azabicyclo[3.3.1]nonan-3α-yl)-N-(2-methoxy-5-methylphenyl)carbamate oxalate]",0.02,35.9 ± 1.5,0.65 ± 0.09,
"COc1ccc(C)cc1NC(=O)OC1CC2CCCC(C1)N2CCCCCCNCc1ccc(F)cc1 (stereo not drawn) [Compound 3e, N-(9-(6-(4′-Fluorobenzylamino)hexyl)-9-azabicyclo[3.3.1]nonan-3α-yl)-N-(2-methoxy-5-methylphenyl)carbamate oxalate]",0.01,70.9 ± 4.38,1 ± 0.26,
"COc1ccc(C)cc1NC(=O)O[C@H]1C[C@H]2CCC[C@@H](C1)N2CCCCNCc1cccc(I)c1 [Compound 2c, N-(9-(4-(3′-Iodobenzylamino)butyl)-9-azabicyclo-[3.3.1]nonan-3α-yl)-N-(2-methoxy-5-methylphenyl)carbamate oxalate]",52.77,1.21 ± 0.14,63.9 ± 5.61,
N-(9-(4-(4′-Fluorobenzoylamino)hexyl)-9-azabicyclo[3.3.1]nonan-3α-yl)-N-(2-methoxy-5-methylphenyl)carbamate oxalate [Compound 4c],2.50,,,Ki (σ1 receptor [2]): 1240 ± 212 nM; Ki (σ2 receptor; [5]): 497 ± 103 nM
COc1ccc(C)cc1NC(=O)OC1C[C@H]2CCC[C@@H](C1)N2CCCCCCN (stereo partly shown) [SV119],273,,,Ki (σ1 receptor [2]): 1420 nM; Ki (σ2 receptor; [5]): 5.2 nM
"O=C(CCCN1CCC(O)(c2ccc(Cl)cc2)CC1)c1ccc(F)cc1 [Haloperidol, reference compound]",,,,apoptosis in all pancreas cancer cell lines tested [3]: dose-dependent apoptosis
"COc1ccc(C)cc1NC(=O)OC1CC2CCCC(C1)N2CCCCCCNC(=O)c1ccc(Br)cc1 (stereo not drawn) [Compound 4b, N-(9-(4-(4′-Bromobenzoylamino)hexyl)-9-azabicyclo[3.3.1]nonan-3α-yl)-N-(2-methoxy-5-methylphenyl)carbamate oxalate]",2.84,,2040 ± 98,Ki (σ2 receptor; read-out: Ki σ2): 719 ± 84 nM
"COc1ccc(C)cc1NC(=O)OC1CC2CCCC(C1)N2CCCCNCc1ccc(I)cc1 (stereo not drawn) [Compound 2f, N-(9-(4-(4′-Iodobenzylamino)butyl)-9-azabicyclo[3.3.1]nonan-3α-yl)-N-(2-methoxy-5-methylphenyl)carbamate oxalate]",0.08,4 ± 0.54,0.34 ± 0.03,
"COc1ccc(C)cc1NC(=O)OC1CC2CCCC(C1)N2CCCCNCc1ccc(Br)cc1 (stereo not drawn) [Compound 2d, N-(9-(4-(4′-Bromobenzylamino)butyl)-9-azabicyclo[3.3.1]nonan-3α-yl)-N-(2-methoxy-5-methylphenyl)carbamates]",0.42,4.07 ± 0.61,1.7 ± 0.28,
COc1ccc(C)cc1NC(=O)OC1CC2CCCC(C1)N2CCCCCCNC(=O)c1ccc(Cl)cc1 (stereo not shown) [Compound 4a],392,3.56 ± 0.08,1400 ± 64,affinity and selectivity for σ2 versus σ1 receptors (in words) (σ2 receptor): high affinity and selectivity
"COc1ccc(C)cc1NC(=O)O[C@H]1C[C@H]2CCC[C@@H](C1)N2CCCCCCN.Cl [Compound 1b, N-(9-(6-Aminohexyl)-9-azabicyclo[3.3.1]nonan-3α-yl)-N-(2-methoxy-5-methyl-phenyl)carbamate hydrochloride]",273,,,Ki (σ1 receptor [2]): 1420 ± 439 nM; affinity and selectivity for σ2 versus σ1 receptors (in words) (σ2 receptor; hydrochloride): highest affinity and selectivity; also recorded: moderate affinity and selectivity; Ki (σ2 receptor; [5]): 5.19 ± 0.8 nM
COC(=O)CC[C@H](NC(=O)[C@H](CC(=O)OC)NC(=O)OCc1ccccc1)C(=O)N[C@H](C(=O)N[C@@H](CC(=O)OC)C(=O)CF)C(C)C [Z-DEVD-FMK],,,,"effect on cell death / cytotoxic effects induced by the three σ2 selective ligands (EMT-6 cells): partially blocked; also recorded: partially, but not completely, blocked"
"COc1ccc(C)cc1NC(=O)OC1CC2CCCC(C1)N2CCCCNCc1cccc(Br)c1 (stereo not drawn) [Compound 2a, N-(9-(4-(3′-Bromobenzylamino)butyl)-9-azabicyclo[3.3.1]nonan-3α-yl)-N-(2-methoxy-5-methylphenyl)carbamate oxalate]",21.66,3.06 ± 0.41,66.3 ± 5.3,
N-(9-(4-(40-Iodobenzoylamino)hexyl)-9-azabicyclo[3.3.1]nonan-3α-yl)-N-(2-methoxy-5-methylphenyl)carbamate oxalate [Compound 4d],1.40,,,Ki (σ1 receptor [2]): 1410 ± 318 nM; Ki (σ2 receptor; [5]): 1010 nM
"COc1ccc(C)cc1NC(=O)O[C@H]1C[C@H]2CCC[C@@H](C1)N2CCCCCCNCc1cccc(I)c1 [Compound 3c, N-(9-(6-(3′-Iodobenzylamino)hexyl)-9-azabicyclo-[3.3.1]nonan-3α-yl)-N-(2-methoxy-5-methylphenyl)carbamate oxalate]",0.02,32.7 ± 5.93,0.56 ± 0.06,
"COc1ccc(C)cc1NC(=O)OC1CC2CCCC(C1)N2CCCCNCc1cccc(F)c1 (stereo not drawn) [Compound 2b, N-(9-(4-(3′-Fluorobenzylamino)butyl)-9-azabicyclo[3.3.1]nonan-3α-yl)-N-(2-methoxy-5-methylphenyl)carbamate oxalate]",0.07,4.13 ± 0.33,0.3 ± 0.05,
"COc1ccc(C)cc1NC(=O)OC1CC2CCCC(C1)N2CCCCCCNS(=O)(=O)c1cccc2c(N(C)C)cccc12 (stereo not drawn) [Compound 9, N-(9-(6-(5-Dimethylamino-1-naphthalenesulfonamido))hexyl)-9-azabicyclo[3.3.1]-nonan-3α-yl-N-(2-methoxy-5-methylphenyl)carbamate oxalate]",85.43,,12600,affinity and selectivity for σ2 versus σ1 receptors (in words) (σ2 receptor): moderate affinity and selectivity; Ki (σ2 receptor; read-out: Ki σ2): 148 ± 8.85 nM
"COc1ccc(C)cc1NC(=O)OC1CC2CCCC(C1)N2CCCCCCNCc1ccc(Br)cc1 (stereo not drawn) [Compound 3d, N-(9-(6-(4′-Bromobenzylamino)hexyl)-9-azabicyclo[3.3.1]nonan-3α-yl)-N-(2-methoxy-5-methylphenyl)carbamate oxalate]",4.35,9.93 ± 1.61,43.2 ± 2.88,
"COc1ccc(C)cc1NC(=O)OC1CC2CCCC(C1)N2CCCCCCNCc1cccc(Br)c1 (stereo not drawn) [Compound 3a, N-(9-(6-(3′-Bromobenzylamino)hexyl)-9-azabicyclo[3.3.1]nonan-3α-yl)-N-(2-methoxy-5-methylphenyl)carbamate oxalate]",12.57,8.94 ± 0.61,112 ± 4.8,
"COc1ccc(C)cc1NC(=O)OC1CC2CCCC(C1)N2CCCCN (stereo not drawn) [Compound 1a, N-(9-(4-Aminobutyl)-9-azabicyclo[3.3.1]nonan-3α-yl)-N-(2-methoxy-5-methyl-phenyl)carbamate hydrochloride]",193,12.9 ± 0.46,2490 ± 271,affinity and selectivity for σ2 versus σ1 receptors (in words) (σ2 receptor): moderate affinity and selectivity
"COc1ccc(C)cc1NC(=O)OC1CC2CCCC(C1)N2CCCCNCc1ccc(F)cc1 (stereo not drawn) [Compound 2e, N-(9-(4-(4′-Fluorobenzylamino)butyl)-9-azabicyclo[3.3.1]nonan-3α-yl)-N-(2-methoxy-5-methylphenyl)carbamate oxalate]",0.76,29.1 ± 3.48,22.1 ± 1.58,
"COc1ccc(C)cc1NC(=O)OC1CC2CCCC(C1)N2CCCCCCCCCCN (stereo not drawn) [Compound 1c, N-(9-(10-Aminodecyl)-9-azabicyclo[3.3.1]nonan-3α-yl)-N-(2-methoxy-5-methylphenyl)carbamate hydrochloride]",19,,,Ki (σ1 receptor [2]): 134 ± 11.9 nM; affinity and selectivity for σ2 versus σ1 receptors (in words) (σ2 receptor): high affinity at σ2 receptor but low selectivity; Ki (σ2 receptor; [5]): 7.07 ± 1.27 nM
"COc1ccc(C)cc1NC(=O)OC1CC2CCCC(C1)N2CCCCCCNCc1cccc(F)c1 (stereo not drawn) [Compound 3b, N-(9-(6-(3′-Fluorobenzylamino)hexyl)-9-azabicyclo[3.3.1]nonan-3α-yl)-N-(2-methoxy-5-methylphenyl)carbamate oxalate]",0.09,4.85 ± 0.49,0.46 ± 0.05,
